The values below come from patent publication US10752640B2, “Compounds active towards bromodomains” (NUEVOLUTION A/S, priority 2014, dated 2020).

What is called pIC50 is the negative decadic logarithm of the IC50, by convention in mol/L. High values mean a low IC50, low ones a high IC50.

pIC50: −log10 of the molar value. Some results are limits rather than exact numbers.

This assay has as its target BRD4 protein (Homo sapiens, UniProt O60885). Description: FRET assay, half maximal inhibitory concentration (IC50). The assay is classed as binding. Conditions: BRD4 protein 50 nM, Biotin-H4KAc4 peptide 12.5 nM; List of Classification. On the procedure:
The compounds were biologically evaluated by determining the half maximal inhibitory concentration (IC50) by FRET assay. The IC50 is a measure of the effectiveness of a substance in inhibiting a specific biological or biochemical function.
For IC50 determinations, dose-response curves were generated, using a top concentration of 50 μM compound in 12.5% DMSO, followed by 10-fold dilutions in 12.5% DMSO. The composition of the reaction buffer was 50 mM HEPES, pH 7.5; 100 mM NaCl, 0.05% CHAPS.
The reaction was run in a final volume of 25 μl. The BRD4 protein (16.5 μl) was added to wells of 384w white Optiplates (Perkin Elmer) (50 nM final concentration) and 1 μl of compound dilution of DMSO control. Incubation time was 30 minutes at room temperature. In the next step, 2.5 μl Biotin-H4KAc4 peptide (Millipore 13-379) was added to the wells (final concentration was 12.5 nM), and the plates were incubated for 30 minutes at room temperature. Detection was performed by addition of 5 μl of a mix of mAb GST-XL665 (Cisbio 61GSTXLB) (10 nM final concentration) and Streptavidin Cryptate (Cisbio 610SAKLB) (2.4 nM final conc.) in reaction buffer with 0.4M KF and 0.05% BSA). The plates were incubated for one hour prior to reading on an Envision reader (Perkin Elmer)
Data was analyzed using GraphPad Prism, and IC50 data was obtained using non-linear regression curve fit using log(inhibitor) vs response (variable slope). All compounds were considered active although classified (according to the half maximal inhibitory concentration (IC50) by FRET assay) as follows: […]
In turn, `Cc1cc(O)nc2ccc(NC(=O)c3cc4c(ccn4CC4NCCO4)cc3N3CCCC3)cc12` (centres unmarked) [Compound-84, N-(2-hydroxy-4-methyl-6-quinolyl)-1-(oxazolidin-2-ylmethyl)-5-pyrrolidin-1-yl-indole-6-carboxamide] showed a pIC50 of more than 6.70.
The result for `Cc1cc(O)nc2ccc(NC(=O)c3cc4[nH]cc(CN(C)C)c4cc3N3CCCC3)cc12` [Compound-85, 3-(dimethylaminomethyl)-N-(2-hydroxy-4-methyl-6-quinolyl)-5-pyrrolidin-1-yl-1H-indole-6-carboxamide] reads more than 6.70; that for `Cc1cc(O)nc2ccc(NC(=O)c3cc4c(ccn4CC(N)=O)cc3N3CCCC3)cc12` [Compound-86, 1-(2-amino-2-oxo-ethyl)-N-(2-hydroxy-4-methyl-6-quinolyl)-5-pyrrolidin-1-yl-indole-6-carboxamide], more than 6.70.
As for `Cc1cc(O)nc2ccc(NC(=O)c3cc(CN4CCOCC4)cnc3N3CCCC3)cc12` [Compound-87, N-(2-hydroxy-4-methyl-6-quinolyl)-5-(morpholinomethyl)-2-pyrrolidin-1-yl-pyridine-3-carboxamide], the figure is more than 6.70; as for `Cc1cc(O)nc2ccc(NC(=O)c3cc(CN4CCOCC4)cnc3N3CCC(F)C3)cc12` (centres unmarked) [Compound-88, 2-(3-fluoropyrrolidin-1-yl)-N-(2-hydroxy-4-methyl-6-quinolyl)-5-(morpholinomethyl)pyridine-3-carboxamide], more than 6.70.
The result for `Cc1cc(O)nc2ccc(NC(=O)c3cc(CN4CCOCC4)cnc3N3CCC(O)C3)cc12` (centres unmarked) [Compound-89, N-(2-hydroxy-4-methyl-6-quinolyl)-2-(3-hydroxypyrrolidin-1-yl)-5-(morpholinomethyl)pyridine-3-carboxamide] reads more than 6.70.
`Cc1cc(O)nc2ccc(NC(=O)c3cc(CN4CCOCC4)cnc3N3CCOCC3)cc12` [Compound-90, N-(2-hydroxy-4-methyl-6-quinolyl)-2-morpholino-5-(morpholinomethyl)pyridine-3-carboxamide] showed a pIC50 of more than 6.70.
As for `O=C(Nc1ccc2nc(O)cc(Cl)c2c1)c1cc(CN2CCOCC2)cnc1N1CCOCC1` [Compound-91, N-(4-chloro-2-hydroxy-6-quinolyl)-2-morpholino-5-(morpholinomethyl)pyridine-3-carboxamide], the figure is more than 6.70; as for `Cc1cc(=O)nc2ccc(NC(=O)c3cc(CN4CCOCC4)cnc3N3CCCC3)cn12` [Compound-92, N-(4-methyl-2-oxo-pyrido[1,2-a]pyrimidin-7-yl)-5-(morpholinomethyl)-2-pyrrolidin-1-yl-pyridine-3-carboxamide], less than 5.00.
The result for `Cc1cc(O)nc2ccc(NC(=O)c3cc(CN4CCOCC4)cnc3N3CCCC3)nc12` [Compound-93, N-(8-methyl-6-oxo-5H-1,5-naphthyridin-2-yl)-5-(morpholinomethyl)-2-pyrrolidin-1-yl-pyridine-3-carboxamide] reads 5.00 to 6.00.
`Cc1cc(=O)[nH]c2ccc(NC(=O)c3cc(S(=O)(=O)N4CCOCC4)ccc3N3CCCC3)nc12` [Compound-94, N-(8-methyl-6-oxo-5H-1,5-naphthyridin-2-yl)-5-morpholinosulfonyl-2-pyrrolidin-1-yl-benzamide] had a pIC50 of less than 5.00.
As for `Cc1cc(O)nc2ccc(NC(=O)c3ccncc3N3CCCC3)cc12` [Compound-95, N-(2-hydroxy-4-methyl-6-quinolyl)-3-pyrrolidin-1-yl-pyridine-4-carboxamide], the figure is more than 6.70.
As for `Cc1cc(O)nc2ccc(NC(=O)c3cccnc3N3CCCC3)cc12` [Compound-96, N-(2-hydroxy-4-methyl-6-quinolyl)-2-pyrrolidin-1-yl-pyridine-3-carboxamide], the figure is more than 6.70.
As for `Cc1cc(O)nc2ccc(NC(=O)c3cccnc3N3CCCC3CN(C)C)cc12` (centres unmarked) [Compound-97, 2-[2-(dimethylaminomethyl)pyrrolidin-1-yl]-N-(2-hydroxy-4-methyl-6-quinolyl)pyridine-3-carboxamide], the negative logarithm of the IC50 (pIC50) was more than 6.70.
As for `COc1cc(O)nc2ccc(NC(=O)c3cc(CN4CCN(C)CC4)ccc3N3CCCC3)cc12` [Compound-98, N-(2-hydroxy-4-methoxy-6-quinolyl)-5-[(4-methylpiperazin-1-yl)methyl]-2-pyrrolidin-1-yl-benzamide], the figure is more than 6.70; as for `O=C1CCc2cc(NC(=O)c3cc(S(=O)(=O)N4CCOCC4)ccc3N3CCCC3)ccc2N1` [Compound-100, 5-morpholinosulfonyl-N-(2-oxo-3,4-dihydro-1H-quinolin-6-yl)-2-pyrrolidin-1-yl-benzamide], 6.00 to 6.30; as for `CC1CC(=O)Nc2ccc(NC(=O)c3cc(CN4CCOCC4)ccc3N3CCCC3)cc21` (centres unmarked) [Compound-101, N-(4-methyl-2-oxo-3,4-dihydro-1H-quinolin-6-yl)-5-(morpholinomethyl)-2-pyrrolidin-1-yl-benzamide], more than 6.70.
As for `CC1CC(=O)Nc2ccc(NC(=O)c3cc(S(=O)(=O)N(C)C)ccc3N3CCCC3)cc21` (centres unmarked) [Compound-102, 5-(dimethylsulfamoyl)-N-(4-methyl-2-oxo-3,4-dihydro-1H-quinolin-6-yl)-2-pyrrolidin-1-yl-benzamide], the negative logarithm of the IC50 (pIC50) was more than 6.70.
As for `CC1(C)CC(=O)Nc2ccc(NC(=O)c3cc(CN4CCOCC4)ccc3N3CCCC3)cc21` [Compound-103, N-(4,4-dimethyl-2-oxo-1,3-dihydroquinolin-6-yl)-5-(morpholinomethyl)-2-pyrrolidin-1-yl-benzamide], the figure is 6.30 to 6.70.
`CN(C)S(=O)(=O)c1ccc(N2CCCC2)c(C(=O)Nc2ccc3c(c2)C(C)(C)CC(=O)N3)c1` [Compound-104, N-(4,4-dimethyl-2-oxo-1,3-dihydroquinolin-6-yl)-5-(dimethylsulfamoyl)-2-pyrrolidin-1-yl-benzamide] gave a negative-log IC50 (pIC50) of more than 6.70.
For the compound `Cc1cc(O)nc2ccc(NC(=O)c3cc(N)ccc3-n3cccn3)cc12` [Compound-105, 5-amino-N-(2-hydroxy-4-methyl-6-quinolyl)-2-pyrazol-1-yl-benzamide], the negative logarithm of the IC50 (pIC50) was 6.00 to 6.30.
As for `CN(C)S(=O)(=O)c1ccc(N2CCCC2)c(C(=O)Nc2cc(F)c3c(c2)C(C)(C)CC(=O)N3)c1` [Compound-106, 5-(dimethylsulfamoyl)-N-(8-fluoro-4,4-dimethyl-2-oxo-1,3-dihydroquinolin-6-yl)-2-pyrrolidin-1-yl-benzamide], the figure is more than 6.70.
Compound `COc1cc(NC(=O)c2cc(S(=O)(=O)N(C)C)ccc2N2CCCC2)cc2c(C)cc(O)nc12` [Compound-108, 5-(dimethylsulfamoyl)-N-(2-hydroxy-8-methoxy-4-methyl-6-quinolyl)-2-pyrrolidin-1-yl-benzamide] showed a negative-log IC50 (pIC50) of more than 6.70.
The result for `Cc1cc(O)nc2ccc(NC(=O)c3cc(C(F)(F)F)ccc3N3CCCC3)cc12` [Compound-109, N-(2-hydroxy-4-methyl-6-quinolyl)-2-pyrrolidin-1-yl-5-(trifluoromethyl)benzamide] reads more than 6.70; that for `Cc1cc(O)nc2ccc(NC(=O)c3cc(S(=O)(=O)N4CCOCC4)ccc3N3CCC(O)C3)cc12` (centres unmarked) [Compound-110, N-(2-hydroxy-4-methyl-6-quinolyl)-2-(3-hydroxypyrrolidin-1-yl)-5-morpholino-sulfonyl-benzamide], more than 6.70; that for `COC1CCN(c2ccc(S(=O)(=O)N3CCOCC3)cc2C(=O)Nc2ccc3nc(O)cc(C)c3c2)C1` (centres unmarked) [Compound-111, N-(2-hydroxy-4-methyl-6-quinolyl)-2-(3-methoxypyrrolidin-1-yl)-5-morpholino-sulfonyl-benzamide], more than 6.70.
The result for `Cc1cc(O)nc2ccc(NC(=O)c3cc(CC#N)ccc3N3CCCC3)cc12` [Compound-112, 5-(cyanomethyl)-N-(4-methyl-2-oxo-1,2-dihydroquinolin-6-yl)-2-(pyrrolidin-1-yl)benzamide] reads more than 6.70; that for `Cc1cc(O)nc2ccc(NC(=O)c3cc(C4(N5CCOCC5)CC4)ccc3N3CCCC3CN(C)C)cc12` (centres unmarked) [Compound-114, 2-(2-((dimethylamino)methyl)pyrrolidin-1-yl)-N-(2-hydroxy-4-methylquinolin-6-yl)-5-(1-morpholinocyclopropyl) benzamide], more than 6.70; that for `Cc1cc(O)nc2ccc(NC(=O)c3cc(C#N)ncc3N3CCC(F)C3)cc12` (centres unmarked) [Compound-115, 2-cyano-5-(3-fluoropyrrolidin-1-yl)-N-(2-hydroxy-4-methylquinolin-6-yl) isonicotinamide], more than 6.70.
Turning to `Cc1cc(O)nc2ccc(NC(=O)c3cc(C#N)ncc3N3CCOCC3)cc12` [Compound-116, 2-cyano-N-(2-hydroxy-4-methylquinolin-6-yl)-5-morpholinoisonicotinamide], the pIC50 is more than 6.70.
`Cc1cc(O)nc2ccc(NC(=O)c3cccnc3N3CCOCC3C)cc12` (centres unmarked) [Compound-120, N-(2-hydroxy-4-methyl-6-quinolyl)-2-(3-methylmorpholin-4-yl)pyridine-3-carboxamide]: the pIC50 is more than 6.70.
In the case of `Cc1cc(O)nc2ccc(NC(=O)c3cccnc3N3CCCC3CN(C)C)cc12` (centres unmarked) [Compound-121, 2-[2-(dimethylaminomethyl)pyrrolidin-1-yl]-N-(2-hydroxy-4-methyl-6-quinolyl)pyridine-3-carboxamide], the negative-log IC50 (pIC50) is more than 6.70.
